Source: patent US6943179B2, “Biurethane derivatives” (Merck Patent GmbH, priority 2001, dated 2005)

Assays:
FXa = FXa (Homo sapiens, UniProt P00742); assay: Factor Xa inhibition (FXa-IC50); assay type: biochemical
Excerpt: The inhibition of factor Xa by the compounds according to the invention and the measurement of the anticoagulant and antithrombotic activity can be determined by conventional in-vitro or in-vivo methods. A suitable method is described, for example, by J. Hauptmann et al. in Thrombosis and Haemostasis 1990, 63, 220-223.
The inhibition of factor Xa can be measured, for example, by the method of T. Hara et al. in Thromb. Haemostas. 1994, 71, 314-319.

TF/FVIIa = biological target: T1, TF/FVIIa (Homo sapiens, UniProt P08709); assay: TF/FVIIa inhibition (TF/FVIIa-IC50); assay type: biochemical
T1 construct: Coagulation factor VIIa initiates the extrinsic part of the coagulation cascade
Excerpt: The inhibition of factor VIIa by the compounds according to the invention and the measurement of the anticoagulant and antithrombotic activity can be determined by conventional in-vitro or in-vivo methods. A conventional method for the measurement of the inhibition of factor VIIa is described, for example, by H. F. Ronning et al. in Thrombosis Research 1996, 84, 73-81.

T1 sequence (P08709 213-466 limits assumed): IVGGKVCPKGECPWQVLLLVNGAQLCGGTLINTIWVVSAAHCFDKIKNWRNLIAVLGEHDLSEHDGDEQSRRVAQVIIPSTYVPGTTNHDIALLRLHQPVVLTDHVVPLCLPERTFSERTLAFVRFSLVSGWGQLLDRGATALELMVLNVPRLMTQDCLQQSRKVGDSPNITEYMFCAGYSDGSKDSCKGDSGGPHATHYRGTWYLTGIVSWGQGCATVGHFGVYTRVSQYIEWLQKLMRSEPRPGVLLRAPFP
T1 sequence (P08709 61-212 limits assumed): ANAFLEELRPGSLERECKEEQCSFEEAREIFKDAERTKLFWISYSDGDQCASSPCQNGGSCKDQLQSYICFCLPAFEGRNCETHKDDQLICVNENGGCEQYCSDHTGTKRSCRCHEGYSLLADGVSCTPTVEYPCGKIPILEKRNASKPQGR
T1 sequence (P13726 33-295 partner): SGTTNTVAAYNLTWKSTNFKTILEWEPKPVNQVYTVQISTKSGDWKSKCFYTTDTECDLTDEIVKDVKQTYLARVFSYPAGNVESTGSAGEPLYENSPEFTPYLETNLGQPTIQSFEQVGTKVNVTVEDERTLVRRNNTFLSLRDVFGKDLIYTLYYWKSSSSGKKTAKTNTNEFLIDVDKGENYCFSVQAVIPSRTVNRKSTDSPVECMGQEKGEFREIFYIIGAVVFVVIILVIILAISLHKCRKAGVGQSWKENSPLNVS
Sequence of FXa (P00742 235-488 limits assumed): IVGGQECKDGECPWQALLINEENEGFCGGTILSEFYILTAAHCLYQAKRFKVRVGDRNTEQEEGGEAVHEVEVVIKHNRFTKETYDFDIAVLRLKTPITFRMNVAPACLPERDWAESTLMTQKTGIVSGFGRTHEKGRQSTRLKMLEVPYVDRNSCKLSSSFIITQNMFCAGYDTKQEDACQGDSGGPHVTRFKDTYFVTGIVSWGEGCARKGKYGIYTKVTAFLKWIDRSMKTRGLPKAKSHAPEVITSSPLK
Sequence of FXa (P00742 41-179 limits assumed): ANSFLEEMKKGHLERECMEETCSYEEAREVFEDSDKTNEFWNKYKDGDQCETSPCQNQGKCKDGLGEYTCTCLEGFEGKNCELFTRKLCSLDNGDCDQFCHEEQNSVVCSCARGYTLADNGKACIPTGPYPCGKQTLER

Row | IC50 (FXa) [nM] | IC50 (TF/FVIIa) [nM] | melting point | SMILES
1 | 390 | 190 | > 250 °C | CS(=O)(=O)c1ccccc1-c1ccc(NC(=O)N(NC(=O)Nc2ccc(Cl)cc2)c2ccccc2)cc1 [compound 3]
2 | 670 | 340 | 170 to 175 °C | O=C(Nc1ccc(Cl)cc1)NN(C(=O)Nc1ccc(N2CCCCC2=O)cc1)c1ccc(Cl)cc1 [compound 2]
3 | 180 | 91 | 165 to 170 °C (dec.) | O=C(Nc1ccc(Cl)cc1)NN(C(=O)Nc1ccc(N2CCCCC2=O)cc1)c1ccccc1 [No. 1, N-(4-Chlorophenylaminocarbonyl)-N′-[4-(2-oxo-1-piperidyl)phenylaminocarbonyl]-N′-phenylhydrazine]
